Test system: Leishmania (L. major)
Assay: Leishmania protozoa proliferation inhibition assay
Format: cell-based
Details: for OD level (number of viable Leishmania protozoa): 48 hours at 27° C., absorbance 450 nm minus 630 nm; for IC50: calculated from the graphs of FIGS. 1 to 4 (concentration vs number of viable leishmania protozoa), read-out: Concentration inhibiting 50% leishmania proliferation
Procedure: After dissolving each of the obtained compounds in dimethylsulfoxide (hereinafter referred to as DMSO), the resultant was diluted by 9 steps in Medium 199 medium (Invitrogen) to the indicated concentration, filtrated with a membrane filter, and each of the filtration was made as a sample solution. […] By keeping the solution at 27° C., incubation was performed under 5% CO2, for 48 hours. Then, TetraColor ONE (tradename: Seikagaku Corporation) reagent was added thereto and further incubated for 6 hours. Then, the absorbance at a wavelength of 450 nm was measured for the 96-well microtiter plate with a microplate reader, the wave length of 630 nm was made as reference wave length, and in order to exclude background effect, the absorbance at 630 nm was excluded from the one at 450 nm, and the OD level was calculated as a level to indicate the number of viable Leishmania protozoa. The assay was performed by three wells at a time for each concentration of each sample, and the mean level was made as OD level. […] Amphotericin B was used as positive control. […] Inhibiting effect against […] protozoa for each sample was similar or more compared with that of Amtephotericin B.

[1] = Table 1, sample concentration 0.001 mg/ml
[2] = Table 1, sample concentration 0.016384 mg/ml
[3] = Table 1, sample concentration 0.04096 mg/ml
[4] = Table 1, sample concentration 0.1024 mg/ml
[5] = Table 1, sample concentration 0.256 mg/ml
[6] = Table 1, sample concentration 0.64 mg/ml
[7] = Table 1, sample concentration 1.6 mg/ml
[8] = Table 1, sample concentration 4 mg/ml
[9] = Table 1, sample concentration 10 mg/ml
[10] = Table 1, sample concentration 25 mg/ml, mean of three wells
[11] = Table 3, sample concentration 0.001 mg/ml
[12] = Table 3, sample concentration 0.002165 mg/ml
[13] = Table 3, sample concentration 0.0072171 mg/ml
[14] = Table 3, sample concentration 0.02406 mg/ml
[15] = Table 3, sample concentration 0.08019 mg/ml
[16] = Table 3, sample concentration 0.2673 mg/ml
[17] = Table 3, sample concentration 0.891 mg/ml
[18] = Table 3, sample concentration 2.97 mg/ml
[19] = Table 3, sample concentration 9.9 mg/ml
[20] = Table 3, sample concentration 33 mg/ml

Row | SMILES | OD level (number of viable Leishmania protozoa) [1] | OD level (number of viable Leishmania protozoa) [2] | OD level (number of viable Leishmania protozoa) [3] | OD level (number of viable Leishmania protozoa) [4] | OD level (number of viable Leishmania protozoa) [5] | OD level (number of viable Leishmania protozoa) [6] | OD level (number of viable Leishmania protozoa) [7] | OD level (number of viable Leishmania protozoa) [8] | OD level (number of viable Leishmania protozoa) [9] | OD level (number of viable Leishmania protozoa) [10] | IC50 [µM] | OD level (number of viable Leishmania protozoa) [11] | OD level (number of viable Leishmania protozoa) [12] | OD level (number of viable Leishmania protozoa) [13] | OD level (number of viable Leishmania protozoa) [14] | OD level (number of viable Leishmania protozoa) [15] | OD level (number of viable Leishmania protozoa) [16] | OD level (number of viable Leishmania protozoa) [17] | OD level (number of viable Leishmania protozoa) [18] | OD level (number of viable Leishmania protozoa) [19] | also measured
1 | CCn1c(=Cc2ccc3ccccc3[n+]2C)sc(=C2Sc3ccccc3N2C)c1=O.[I-] [IV (c), 2-[{5-(3-methyl-2(3H)-benzothiazolylidene)-4-oxo-3-ethyl-2-thiazolidinylidene}methyl]-1-methylquinolinium=iodide] | 0.472 | 0.470 | 0.474 | 0.496 | 0.398 | 0.158 | 0.117 | 0.069 | 0.032 | 0.032 | 0.82 | – | – | – | – | – | – | – | – | – | –
2 | CCn1c(=Cc2sc3ccccc3[n+]2C)sc(=C2C=Cc3ccccc3N2C)c1=O.Cc1ccc(S(=O)(=O)[O-])cc1 [IV (d)] | – | – | – | – | – | – | – | – | – | – | – | 0.346 | 0.357 | 0.339 | 0.341 | 0.359 | 0.348 | 0.365 | 0.395 | 0.344 | OD level (number of viable Leishmania protozoa) [20]: 0.035
3 | CCn1c(=Cc2sc3ccccc3[n+]2CC)sc(=c2sc(=C3Sc4ccccc4N3C)c(=O)n2CC)c1=O.[Br-] [IV (e), 2-[[5-{5′-(3″-methyl-2″ (3″H)-benzothiazolylidene)-4′-oxo-3′-ethyl-2′-thiazolidinylidene)-4-oxo-3-ethyl-2-thiazolidinylidene]methyl]-3-ethylbenzothiazolium=bromide] | 0.463 | 0.445 | 0.220 | 0.159 | 0.056 | 0.035 | 0.030 | 0.030 | 0.032 | 0.033 | 0.061 | – | – | – | – | – | – | – | – | – | –
4 | CCn1c(=Cc2cccc[n+]2C)sc(=C2Sc3ccc(Cl)cc3N2C)c1=O.Cc1ccc(S(=O)(=O)[O-])cc1 [IV (f), 2-[{5-(5-chloro-3-methyl-2(3H)-benzothiazolylidene)-4-oxo-3-ethyl-2-thiazolidinylidene}methyl]-1-methylpyridinium=p-toluenesulfonate] | – | – | – | – | – | – | – | – | – | – | 0.54 | 0.352 | 0.388 | 0.369 | 0.384 | 0.428 | 0.214 | 0.116 | 0.081 | 0.064 | OD level (number of viable Leishmania protozoa) [20]: 0.038
5 | CCn1c(=Cc2sc3ccc4ccccc4c3[n+]2C)sc(=C2Sc3ccccc3N2C)c1=O.Cc1ccc(S(=O)(=O)[O-])cc1 [IV (g), 2-[{5-(3-methyl-2(3H)-benzothiazolylidene)-4-oxo-3-ethyl-2-thiazolidinylidene}methyl]-3-methylbenzo[e]benzothiazolium=p-toluenesulfonate] | – | – | – | – | – | – | – | – | – | – | 0.012 | – | – | – | – | – | – | – | – | – | OD level (number of viable Leishmania protozoa) (Table 2, sample concentration 0.0001 mg/ml): 0.352; OD level (number of viable Leishmania protozoa) (Table 2, sample concentration 0.0007 mg/ml): 0.368; OD level (number of viable Leishmania protozoa) (Table 2, sample concentration 0.002 mg/ml): 0.253; OD level (number of viable Leishmania protozoa) (Table 2, sample concentration 0.008 mg/ml): 0.121; OD level (number of viable Leishmania protozoa) (Table 2, sample concentration 0.025 mg/ml): 0.055; OD level (number of viable Leishmania protozoa) (Table 2, sample concentration 0.084 mg/ml): 0.032; OD level (number of viable Leishmania protozoa) (Table 2, sample concentration 0.279 mg/ml): 0.030; OD level (number of viable Leishmania protozoa) (Table 2, sample concentration 0.93 mg/ml): 0.031; OD level (number of viable Leishmania protozoa) (Table 2, sample concentration 3.1 mg/ml): 0.029; OD level (number of viable Leishmania protozoa) (Table 2, sample concentration 2E−04 mg/ml): 0.448
6 | C=CCn1c(=Cc2cccc[n+]2C)sc(=C2Sc3ccc(Cl)cc3N2C)c1=O.Cc1ccc(S(=O)(=O)[O-])cc1 [IV (h), 2-[{5-(5-chloro-3-methyl-2(3H)-benzothiazolylidene)-4-oxo-3-(2-propenyl)-2-thiazolidinylidene}methyl]-1-methylpyridinium=p-toluenesulfonate] | – | – | – | – | – | – | – | – | – | – | 0.27 | 0.352 | 0.368 | 0.375 | 0.423 | 0.277 | 0.140 | 0.079 | 0.039 | 0.029 | OD level (number of viable Leishmania protozoa) [20]: 0.034
7 | CCn1c(=Cc2cccc[n+]2CC)sc(=C2Sc3ccccc3N2C)c1=O.[Cl-] [IV (i), 2-[{5-(3-methyl-2(3H)-benzothiazolylidene)-4-oxo-3-ethyl-2-thiazolidinylidene}methyl]-1-ethylpyridinium=chloride] | 0.451 | 0.504 | 0.482 | 0.478 | 0.153 | 0.086 | 0.039 | 0.033 | 0.030 | 0.026 | 0.46 | – | – | – | – | – | – | – | – | – | –

From patent US20060252800A1, “Anti-leishmania agent” (priority 2003, published 2006)
